Reference: ChEMBL document CHEMBL5725928, “Substituted 4,5,6,7-tetrahydropyrazolo[1,5-A]pyrazine derivatives as casein kinase 1 D/E inhibitors” (2017)

Biological target: Casein kinase I isoform epsilon (Homo sapiens, UniProt P49674)
Assay: Kinase Assay: The kinase assay was performed in V-bottom 384-well plates. The final assay volume was 30 μl prepared from 15 μl additions of enzyme, substrates (fluoresceinated peptide FL-AHA-KRRRAL-PSER-VASLPGL-OH and ATP) and test compounds in assay buffer (20 mM HEPES pH 7.4, 30 mM MgCl2, 0.015% Brij35 and 4 mM DTT). The reaction was incubated at room temperature for 22 hours and terminated by adding 45 μl of 35 mM EDTA to each sample. The reaction mixture was analyzed on the Caliper LABCHIP®3000 (Caliper, Hopkinton, Mass.) by electrophoretic separation of the unphosphorylated substrate and phosphorylated product. […] The final concentration of reagents in the assay were 200 pM CK1ε or CK1δ, 50 μM ATP, 1.5 μM FL-AHA-KRRRAL-PSER-VASLPGL-OH, and 1.6% DMSO. Dose response curves were generated to determine the concentration required to inhibit 50% of the kinase activity (IC50). Compounds were dissolved at 10 mM in dimethylsulfoxide (DMSO) and evaluated at eleven concentrations. IC50 values were derived by non-linear regression analysis.

Casein kinase I isoform epsilon, sequence (P49674 whole entry, canonical isoform): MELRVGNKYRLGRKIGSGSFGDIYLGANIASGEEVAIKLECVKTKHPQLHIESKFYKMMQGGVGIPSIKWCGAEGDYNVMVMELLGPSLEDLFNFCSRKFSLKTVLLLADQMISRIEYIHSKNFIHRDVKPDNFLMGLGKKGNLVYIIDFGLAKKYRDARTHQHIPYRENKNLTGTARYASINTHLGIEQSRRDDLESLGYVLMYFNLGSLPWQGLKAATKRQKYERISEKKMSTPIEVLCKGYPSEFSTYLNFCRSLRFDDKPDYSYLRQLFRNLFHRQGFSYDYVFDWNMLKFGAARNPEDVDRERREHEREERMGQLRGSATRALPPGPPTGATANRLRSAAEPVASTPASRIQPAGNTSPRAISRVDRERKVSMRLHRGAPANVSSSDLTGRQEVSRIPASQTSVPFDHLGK

SMILES | IC50
NC(=O)c1c(-c2ccc(F)c(Cl)c2)nn2c1CN(C(=O)Nc1cc(F)cc(C(F)(F)F)c1)CC2 | < 10 nM
NC(=O)c1c(-c2ccc(F)c(Cl)c2)nn2c1CN(C(=O)Nc1ccc3c(c1)S(=O)(=O)C=C3)CC2 | < 10 nM
NC(=O)c1c(-c2ccc(Cl)c(F)c2)nn2c1CN(C(=O)Nc1ccc(Cl)c(Cl)c1)CC2 | < 10 nM
Cc1nc(-c2ccc(NC(=O)N3CCn4nc(-c5ccc(F)c(Cl)c5)c(C(N)=O)c4C3)cc2)cs1 | < 10 nM
Cc1nc(-c2ccc(NC(=O)N3CCn4nc(-c5cccc(F)c5)c(C(N)=O)c4C3)cc2)cs1 | < 10 nM
N#Cc1ccc(NC(=O)N2CCn3nc(-c4cnc(F)c(Cl)c4)c(C(N)=O)c3C2)cc1C(F)(F)F | < 10 nM
NC(=O)c1c(-c2cccc(F)c2)nn2c1CN(C(=O)Nc1cc(Cl)cc(Cl)c1)CC2 | < 10 nM
N#Cc1ccc(NC(=O)N2CCn3nc(-c4cccc(Cl)c4)c(C(N)=O)c3C2)cc1N1CCOCC1 | < 10 nM
NC(=O)c1c(-c2ccc(F)c(Cl)c2)nn2c1CN(C(=O)Nc1ccc(F)cc1)CC2 | < 10 nM
COc1cccc(-c2nn3c(c2C(N)=O)CN(C(=O)Nc2ccc(C#N)cc2)CC3)c1 | < 10 nM
NC(=O)c1c(-c2cccc(F)c2)nn2c1CN(C(=O)NC1C3CC4CC(C3)CC1C4)CC2 (stereo not drawn) | < 10 nM
NC(=O)c1c(-c2cc(F)cc(Cl)c2)nn2c1CN(C(=O)Nc1cc(F)cc(C(F)(F)F)c1)CC2 | < 10 nM
Cc1ncc(-c2ccc(NC(=O)N3CCn4nc(-c5cccc(F)c5)c(C(N)=O)c4C3)cc2)o1 | < 10 nM
